“Also recorded” adds a separate entry of the source. Where two headings read alike, the source gives them in different places.

The text below walks through data of patent publication US11845992B2, “Compositions and methods for predicting response and resistance to CDK4/6 inhibition” (DANA-FARBER CANCER INSTITUTE, INC., priority 2017, dated 2023).

Assay [1] has as its system GFP-positive parental T47D cells. As to the kind of experiment: GFP co-culture resistance transmission assay. As to conditions: 72 hours co-culture, exosome production inhibited.
Protocol: FIG. 11A is a bar graph, wherein cells were treated with either DMSO, 10 μM GW4869 or 10 μM manumycin A for 72 hours prior to exosome harvest and quantification. […] Subsequently, cells were harvested and analyzed by flow cytometry for GFP expression and cell cycle profile.
Assay [2] deals with T47D cells. As to the kind of experiment: Growth inhibition assay, 5 days, normalized to DMSO. As to conditions: for change of GI50 by CDK6 overexpression: CDK6 overexpressing vs parental T47D; for change of GI50 by miR-432 overexpression: parental T47D overexpressing miR-432 (FIG. 10A). It counts as cell-based. As for the experimental part: (§1) Subsequently, cell growth was quantified and normalized to DMSO treated control.
Subsequently, cell growth was quantified and normalized to DMSO treated control. BLISS Synergy/antagonism score was modelled using Combenefit software. FIG. 12C is a graph, wherein T47D parental and resistant cells were treated with escalating dose of galunisertib for 5 days. Subsequently, cell growth was quantified and normalized to DMSO treated control.

In assay [3] the test system is T47D cells. As to the kind of experiment: Flow cytometry cell cycle analysis. It counts as cell-based. Background: A flow cytometer gives signals particle by particle.
Assay [4] concerns estrogen receptor positive (ER+) and HER2 negative breast cancer. As to conditions: patients; previous results; cited from earlier work.
The test system of assay [5] is T47D cells. Put plainly: cells. The format is cell-based. Particulars: for CC50: Homo sapiens, T47D. As for the experimental part: Cells were incubated for 14 to 21 days to allow colony formation. Colonies were fixed and permeabilised using Carnoy's fixative (75% methanol, 25% Acetic acid) and stained with 1% crystal violet and counted.
Cells stably expressing shRNA, miRNA or cDNA were generated using lentiviral transfection, as previously described using the pLKO.1 or pLEX-307 backbone (Moffat, J. et al., Cell 124: 1283-1298 (2006)). Multiple stable cell lines were generated for each protein knockdown; shRNA sequences were obtained from the RNAi Consortium database (Moffat, J. et al., Cell 124: 1283-1298 (2006)). CDK6 GeneArt cDNA sequences (K43M (Hu, M. G. et al., Blood 117: 6120-6131 (2011)), S178P (Bockstaele, L. et al., Mol. Cell Biol. 29: 4188-4200 (2009)) and R31C (Hu, M. G. et al., Blood 117: 6120-6131 (2011)) were purchased from ThermoFisher and cloned into the pLEX-307 backbone. For miRNA overexpression, ˜500 bp of DNA encompassing each miRNA sequence was PCR purified and cloned into the pLEX-307 backbone, miRNA mimics were purchased and transfected into cells as a positive control for miRNA detection. Protein expression/miRNA expression/knockdown was confirmed after 5 days of selection in puromycin (1 μg/ml for both T47D and MCF7).
CDK6 by CRIPSR/Cas9 was performed as previously described (Sanjana, N. E. et al., Nat. Meth 11: 783-784 (2014)). The following sgRNA sequence was cloned into the LentiCRIPSR v2 vector-sgCDK6-7 (targeting the 5′UTR): […] (SEQ ID NO: 2). Cells were selected using 1 μg/ml puromycin and protein knockout confirmed after ˜12 days.

Assay [6] has as its system palbociclib resistant MCF7 xenografts. Put plainly: Palbociclib resistant MCF7 xenograft with treatment holiday. The format is in vivo, mice. As to conditions: 100 mg/kg/day oral gavage, after 28 days treatment holiday. As for the experimental part: Female nude mice (NCr-Foxn1^NU, Tactonic Laboratories) were maintained and handled in isolators under specific pathogen-free conditions for tissue distribution and efficacy studies in accordance with local guidelines and therapeutic interventions approved by the Animal Care and Use Committee of Dana-Farber Cancer Institute. Mice were implanted with 17β-estradiol pellets (0.36 mg, 90-day release, Innovative Research of America) prior to cell implantation. […] Tumors were measured throughout the experiment and relative tumor volume calculated.

The test system of a further assay is MCF7 cells. As to the kind of experiment: Growth inhibition assay, 5 days, normalized to DMSO. It counts as cell-based. Particulars: for change of GI50 by CDK6 overexpression: CDK6 overexpressing vs parental MCF7 (printed MCG-7); for change of GI50 by miR-432 overexpression: parental MCF7 overexpressing miR-432 (FIG. 10B).
From the text: as §1

Assay [7] deals with T47D cells. Put plainly: Annexin V apoptosis assay. As to conditions: 48 hours.
The subject of assay [8] is CDK6 protein in T47D cells. As to the kind of experiment: Western blot of CDK6 protein expression. The format is cell-based. Particulars: palbociclib exposure up to 6 days. On the procedure: Cells were lysed with RIPA buffer (10 mM Tris, pH 7.5, 1% Nonidet-P40, 2 mM Na2EDTA, 150 mM NaCl) plus protease inhibitors (Calbiochem) and protein estimation was performed by Pierce assay. Gel electrophoresis was performed with Bis-Tris 4-12% (v/v) polyacrylamide gradient gels (ThermoFisher). Samples were transferred onto Immobilin-P PVDF membrane (EMD Millipore), and probed with primary antibodies against either CDK1, CDK2, CDK4, CDK6, Cyclin D1, Cyclin D3, Cyclin E, p2′7, SMAD3, SMAD4, TGFβ, TGFβR3 (Santa Cruz), pRB (Cell signaling) or actin (Genescript). Goat anti-rabbit or goat anti-mouse HRP-linked secondary antibodies (1:1000; Dako) and ECL reagent (Perkin Elmer) were used for protein detection. Cytokines were analyzed using the Human Cytokine Array Kit performed per manufactures instructions (R&D Systems).
A general note: Immunoblotting shows a protein as a band on a membrane.

Assay [9] relates to parotid cancer harboring CDKN2A/B loss. As to conditions: one patient; cited from earlier work.

As to `O=C(/C=C/c1ccc(/C=C/C(=O)Nc2ccc(C3=NCCN3)cc2)cc1)Nc1ccc(C2=NCCN2)cc1` [GW4869], the “G1 population of GFP-positive parental cells co-cultured with resistant cells” value in assay [1] was “significant increase”.

On to `Cc1cccc(-c2nn3c(c2-c2ccnc4ccc(C(N)=O)cc24)CCC3)n1` [galunisertib], for which the “interaction with palbociclib (BLISS synergy/antagonism)” value in the assay with T47D cells [2] (combined with palbociclib, parental and resistant T47D cells) is listed as “significantly antagonistic”. The “effect on growth when used alone” value in the assay with T47D cells [2] (parental or resistant T47D cells, 5 days) is given as “no effect”. Also, the “effect on palbociclib G1 arrest” value in the assay with T47D cells [3] (in combination with palbociclib, T47D, 24 hours) is given as “prevent G1 arrest”.

For the compound `N#Cc1ccc(C(c2ccc(C#N)cc2)n2cncn2)cc1` [letrozole], the progression free survival in assay [4] is listed as 14.5 months.

Take `CCCC[C@@H](C)/C=C(C)/C=C(\C)C(=O)NC1=C[C@@](O)(/C=C/C=C/C=C/C(=O)NC2=C(O)CCC2=O)[C@@H]2O[C@@H]2C1=O` [manumycin A]: the “G1 population of GFP-positive parental cells co-cultured with resistant cells” value in assay [1] is “significant increase”.

`CC(=O)c1c(C)c2cnc(Nc3ccc(N4CCNCC4)cn3)nc2n(C2CCCC2)c1=O` [palbociclib]: the CC50 came to 34.2 nM in the assay on T47D cells [5] (read-out: LC50, survival after palbociclib treatment, CDK6 knockout T47D cells (sgK6-7)); 632 nM in the assay on T47D cells [5] (read-out: LC50, survival after palbociclib treatment, INK4-insensitive CDK6 (R31C) T47D cells); 269 nM with T47D cells [5] (read-out: LC50, survival after palbociclib treatment, constitutively active CDK6 (S178P) T47D cells); 66.2 nM with T47D cells [5] (read-out: LC50, survival after palbociclib treatment, control T47D cells (sgNT)); 26.6 nM with T47D cells [5] (read-out: LC50, survival after palbociclib treatment, kinase dead CDK6-expressing T47D cells (K43M)); 229 nM with T47D cells [5] (read-out: LC50, survival after palbociclib treatment, wild-type CDK6 (WT) T47D cells). In addition, the “survival after palbociclib treatment compared to non-target shRNA control” value in the assay on T47D cells [5] (shRNA-mediated CDK6-depleted T47D cells) is recorded as “significantly lower survival”. The “tumor burden after re-introduction of treatment” value in assay [6] was “substantial regression of all but 1 tumor; also recorded: marked decrease”. Besides, the “change of GI50 by CDK6 overexpression” value in the assay on T47D cells [2] and with MCF7 cells was “significantly increased” throughout. Moreover, the “change of GI50 by miR-432 overexpression” value in the assay on T47D cells [2] and in the assay on MCF7 cells was “significantly increased” each time. In addition, in the assay on T47D cells [7] (CDK6 knockdown and knockout T47D cells), the apoptosis entry was “marked increase”. For the same compound, the “effect on apoptotic fraction” value in the assay on T47D cells [7] (shNT-expressing T47D cells) is given as “no effect”. In addition, the “effect on CDK6 expression” value in assay [8] is “no observable effect”. The “sub-G1 DNA content compared to control cells” value in the assay with T47D cells [3] (CDK6-depleted T47D cells, 100 nM, 24 hours) was “significantly more”. Moreover, in the assay with T47D cells [3] (T47D, 100 nM, initial exposure (week 0)), the “cells in the G1 phase of the cell cycle” value is listed as “more than 90%”. The “cell cycle effect in parental cells” value in the assay on T47D cells [3] (parental T47D, 100 nM or 300 nM, persisted for 14 days) is “sustained G1 arrest”. Also, the “cell cycle arrest on re-challenge” value in the assay on T47D cells [3] (resistant cells after 6 weeks in drug-free media, 100 nM for 24 hours) is “indistinguishable from parental cells”.

With `CN(C)C(=O)c1cc2cnc(Nc3ccc(N4CCNCC4)cn3)nc2n1C1CCCC1` [ribociclib], in [9], the clinical response entry is listed as “partial response”. In addition, the “change of GI50 by CDK6 overexpression” value with T47D cells [2] and in the assay with MCF7 cells was “significantly increased” each time. For the same compound, the “cross-resistance of palbociclib resistant cells” value in the assay with T47D cells [2] (palbociclib resistant (100 nM) T47D vs parental) and with MCF7 cells (palbociclib resistant (100 nM) MCF7 vs parental) was “significantly more resistant” throughout. The “change of GI50 by miR-432 overexpression” value in the assay on T47D cells [2] and in the assay on MCF7 cells was “significantly increased” throughout.
